Holding throughout (experiment): growth of human tumour cells (NCI), 48 h
The subject of test [1] is HCT-116 colon.
For test [2], the system named is SK-MEL-5 melanoma.
Test [3] concerns EKVX NSCLC.
For test [4], the system named is MDA-MB-231 breast.
Test [5] has as its system ACHN renal.
Test [6] concerns RPMI-8226 leukemia.
For test [7], the system named is MCF7 breast.
Test [8] deals with NCI-H23 lung.
For test [9], the system named is MALME-3M melanoma.
The test system of test [10] is OVCAR-4 ovarian.
The test system of test [11] is IGROV1 ovarian.
Test [12] deals with PC-3 prostate.
In test [13] the test system is UACC-257 melanoma.
The test system of test [14] is TK-10 renal.
The test system of test [15] is HCT-15 colon.
Test [16] relates to UACC-62 melanoma.
Test [17] deals with SF-295 CNS.
The subject of test [18] is SK-MEL-2 melanoma.

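In this assay, cells in 96-well plates receive the compound at five concentrations for 48 hours. Endpoints are linearly interpolated between the surrounding concentrations. The concentration for full growth arrest is given as TGI.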 Some results are limits rather than exact numbers.

For the compound `CC(C)=CCC[C@@H](C)C1=C(O)C(Nc2ccccc2Br)=C(C)C(=O)C1=O`, the TGI in test [1] was 43.6 µM; in test [2], 16.1 µM; in test [3], 48.3 µM; in test [4], 61.9 µM; in test [5], greater than 60.2 µM; in [6] it was greater than 58.6 µM. Moreover, the TGI is 39.7 µM in [7]; 31.2 µM in test [8]; 26 µM in [9]; greater than 100 µM in test [10]; 37.3 µM in test [11]; 38.6 µM in [12]. Also, the TGI in [13] was 43.6 µM; in test [14], 68.2 µM; in test [15], 22.9 µM; in test [16] it was 38.5 µM; in [17], 28.1 µM; in test [18], 41.9 µM.

Take `COC(OC)C1OC(CO)C(n2cc(C)c(=O)[nH]c2=O)C1O` (stereo unspecified): the TGI in test [1], in [2], in [3], in [4], in [5] and in test [6] was greater than 100 µM throughout. The TGI in test [7], in test [8], in [9], in [10], in test [11] and in test [12] was greater than 100 µM each time. In addition, the TGI in test [13], in test [14], in [15], in test [16], in [17] and in test [18] was greater than 100 µM each time.

With `C=CC(Cl)(CBr)CCC(Br)=C(C)C` (stereo unspecified), the TGI is 63 µM in test [1]; 33.7 µM in test [2]; greater than 100 µM in test [3]; 37.5 µM in test [4]; 49.7 µM in test [5]; 54.5 µM in test [6]. Besides, the TGI in test [7] was found to be 31.5 µM; in test [8] it was 68.5 µM; in test [9], 34.5 µM; in [10] it was 46.6 µM; in test [11] it was 29.9 µM; in test [12] it was 52.7 µM. Moreover, the TGI in test [13] was 59.5 µM; in test [14], 58.8 µM; in [15], 35.9 µM; in test [16], 36 µM; in test [17] it was greater than 100 µM; in test [18], 36.8 µM.

Turning to `O=C1/C(=C\c2ccc(Cl)cc2Cl)Sc2scc(-c3cccc([N+](=O)[O-])c3)[n+]21`, the TGI is 17.8 µM in [1]; 7.93 µM in test [2]; 14.3 µM in test [3]; 25.1 µM in test [4]; 12.6 µM in [5]; 26.9 µM in test [6]. Further, the TGI worked out at 15.5 µM in test [7]; 31.5 µM in [8]; 22.9 µM in test [9]; 38.1 µM in test [10]; 22.5 µM in test [11]; 33.1 µM in [12]. For the same compound, the TGI in test [13] was 18.3 µM; in test [14], 13.3 µM; in [15], 4.87 µM; in test [16] it was 21.6 µM; in test [17], greater than 68.9 µM; in test [18] it was 30.3 µM.

Consider `COC1=C2CC(C)CC(OC)[C@@H](OC(=O)CCN)[C@H](C)/C=C(\C)C(OC(N)=O)C(OC)/C=C\C=C(/C)C(=O)NC(=CC1=O)C2=O` (stereo partly specified), for which the TGI in test [1] is 12.3 µM; in test [2] it was 15.2 µM; in [3], 25 µM; in [4], 7.47 µM; in [5], 16 µM; in [6], 14.5 µM. For the same compound, the TGI in test [7] was 2.03 µM; in test [8], 6.22 µM; in test [9] it was 16.3 µM; in [10] it was 12.6 µM; in [11] it was 3.25 µM; in test [12] it was 15.1 µM. Besides, the TGI in test [13] is 2.82 µM; in test [14], 20.4 µM; in test [15], 13.8 µM; in test [16], 4.34 µM; in [17], 30.1 µM; in test [18] it was 22.7 µM.

For the compound `CCCCON1C[C@@H](O)C(O)[C@@H](O)C1` (stereo partly specified), the TGI in test [1], in [2], in [3], in test [4], in test [5] and in test [6] was greater than 100 µM in each case. The TGI in test [7], in test [8], in [9], in [10], in test [11] and in test [12] was greater than 100 µM throughout. Further, the TGI in [13], in [14], in test [15], in test [16], in test [17] and in [18] was greater than 100 µM each time.

Turning to `CCOc1ccc(N=NC2C(=O)N(C(=O)CC(=O)Nc3ccccc3OC)N=C2C)cc1` (stereo unspecified), the TGI in test [1] is greater than 100 µM; in test [2] it was greater than 100 µM; in test [3], greater than 100 µM; in [4], greater than 51.7 µM; in test [5], greater than 100 µM; in [6], greater than 100 µM. For the same compound, the TGI in [7], in test [8], in test [9], in [10], in test [11] and in test [12] was greater than 100 µM in each case. Further, the TGI in test [13] is greater than 100 µM; in test [14], greater than 52.3 µM; in [15], greater than 100 µM; in test [16], greater than 100 µM; in test [17], greater than 53.8 µM; in test [18] it was greater than 58.7 µM.

Source of the values: PubChem BioAssay (NCI).
